This note sets out measurements from paper PMC5516944 (Structure (London, England : 1993), 2017).

The target of data set [1] is T1, hATL1 (Homo sapiens, UniProt Q8WXF7).
T1 sequence (Q8WXF7 1-446): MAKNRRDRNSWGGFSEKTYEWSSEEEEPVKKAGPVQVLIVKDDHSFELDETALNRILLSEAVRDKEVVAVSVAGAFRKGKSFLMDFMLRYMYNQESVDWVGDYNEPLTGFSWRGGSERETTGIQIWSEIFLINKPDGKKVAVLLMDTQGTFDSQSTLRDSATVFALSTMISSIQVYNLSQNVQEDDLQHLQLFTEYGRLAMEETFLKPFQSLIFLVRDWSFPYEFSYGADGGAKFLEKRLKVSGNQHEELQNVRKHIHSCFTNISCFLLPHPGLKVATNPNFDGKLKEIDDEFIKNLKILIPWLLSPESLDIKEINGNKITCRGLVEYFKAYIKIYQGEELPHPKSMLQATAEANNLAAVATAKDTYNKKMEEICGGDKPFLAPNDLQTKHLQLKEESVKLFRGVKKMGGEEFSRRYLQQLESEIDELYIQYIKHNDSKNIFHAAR
In words: SEC-MALS, nucleotide-induced dimerisation. The format is binding. Conditions: 1 mM nucleotide; 40 μM protein; pH 7.5; 4 mM MgCl2. Background: Size exclusion chromatography separates by hydrodynamic size, large species first.

Data set [2] has as its target T2, hATL3 (Homo sapiens, UniProt Q6DD88).
T2 sequence (Q6DD88 1-442): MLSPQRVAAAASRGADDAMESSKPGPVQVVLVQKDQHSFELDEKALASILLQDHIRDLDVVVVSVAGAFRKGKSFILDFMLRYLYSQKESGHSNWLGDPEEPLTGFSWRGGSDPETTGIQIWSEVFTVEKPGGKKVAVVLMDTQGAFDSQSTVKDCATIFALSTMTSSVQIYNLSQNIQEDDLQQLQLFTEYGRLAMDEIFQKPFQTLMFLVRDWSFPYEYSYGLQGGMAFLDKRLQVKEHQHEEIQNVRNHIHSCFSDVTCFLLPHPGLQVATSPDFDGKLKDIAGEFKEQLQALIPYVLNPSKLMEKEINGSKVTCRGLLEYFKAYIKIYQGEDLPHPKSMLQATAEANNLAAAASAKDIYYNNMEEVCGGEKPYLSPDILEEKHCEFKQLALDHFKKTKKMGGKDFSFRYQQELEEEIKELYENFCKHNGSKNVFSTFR
The data set is described as follows: SEC-MALS, nucleotide-induced dimerisation. It is filed as binding. Conditions: 1 mM nucleotide; 40 μM protein; pH 7.5; 4 mM MgCl2.

Data set [3] concerns the molecule itself. In words: SEC-MALS.

In the case of `Nc1nc2c(ncn2[C@@H]2O[C@H](COP(=O)(O)OP(=O)(O)NP(=O)(O)O)[C@@H](O)[C@H]2O)c(=O)[nH]1` [GppNHp], the “SEC-MALS, nucleotide-induced dimerisation” value in data set [1] is “dimeric ATLs are found when bound to GppNHp and GDP•AlFx”; in data set [2], “dimeric ATLs are found when bound to GppNHp and GDP•AlFx”.

B1: human atlastin 1 (hATL1) catalytic core fragment, G and middle domains (1–446) (domain or fragment, UniProt Q8WXF7 1-446, looked up)
chain: T1 sequence (Q8WXF7 1-446)
As to B1, in data set [3], the “stoichiometry N” value amounted to 2.

B2: human atlastin 3 (hATL3) catalytic core fragment, G and middle domains (1–442) (domain or fragment, UniProt Q6DD88 1-442, looked up)
chain: T2 sequence (Q6DD88 1-442)
For B2, the “stoichiometry N” value in data set [3] is 2.

By stoichiometry N is commonly meant a count of units in the complex or per binding partner.
